From US8952024B2, “Herbicidal pyrimidone derivatives” (E I du Pont de Nemours and Company, priority 2009, dated 2015)
Like-named read-outs stand apart in the source and are kept apart here.

Columns and labels:
Assay type in all cases: in vivo
[1] = test system: barnyardgrass (Echinochloa crus-galli); experiment: Test A pre-/postemergence plant response; details: Echinochloa crus-galli, 240 h; for pest or weed control at 125 g/ha: 125 g ai/ha; for pest or weed control at 500 g/ha: 500 g ai/ha
Procedure, shortened: (§1)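 Visually rated 0–100 injury (100 = complete control) versus untreated plants, ~10 days in greenhouse. Application pre- (soil spray, loam/sand) and postemergence (2–10 cm, 1–2 leaf stage), same timepoint.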

corn (Zea mays) = experiment: Test A pre-/postemergence plant response; details: Zea mays, 240 h; for Corn plant response rating (crop injury, 0 = no effect, 100 = complete kill) at 500 g/ha: 500 g ai/ha
Procedure, shortened: as §1

[2] = test system: giant foxtail (Setaria faberii); experiment: Test A pre-/postemergence plant response; details: Setaria faberi, 240 h; for pest or weed control at 125 g/ha: 125 g ai/ha; for pest or weed control at 500 g/ha: 500 g ai/ha
Procedure, shortened: as §1

[3] = test system: large crabgrass (Digitaria sanguinalis); experiment: Test A pre-/postemergence plant response; details: Digitaria sanguinalis, 240 h; for pest or weed control at 125 g/ha: 125 g ai/ha; for pest or weed control at 500 g/ha: 500 g ai/ha
Procedure, shortened: as §1

[4] = test system: morningglory (Ipomoea spp.); experiment: Test A pre-/postemergence plant response; details: Ipomoea, 240 h; for pest or weed control at 125 g/ha: 125 g ai/ha; for pest or weed control at 500 g/ha: 500 g ai/ha
Procedure, shortened: as §1

[5] = test system: pigweed (Amaranthus retroflexus); experiment: Test A pre-/postemergence plant response; details: Amaranthus retroflexus, 240 h; for pest or weed control at 125 g/ha: 125 g ai/ha; for pest or weed control at 500 g/ha: 500 g ai/ha
Procedure, shortened: as §1

[6] = test system: velvetleaf (Abutilon theophrasti); experiment: Test A pre-/postemergence plant response; details: Abutilon theophrasti, 240 h; for pest or weed control at 125 g/ha: 125 g ai/ha; for pest or weed control at 500 g/ha: 500 g ai/ha
Procedure, shortened: as §1

[7] = test system: wheat (Triticum aestivum); experiment: Test A pre-/postemergence plant response; details: Triticum aestivum, 240 h; for plant injury at 125 g/ha: 125 g ai/ha; for plant injury at 500 g/ha: 500 g ai/ha
Procedure, shortened: as §1

[8] = test system: barnyardgrass (Echinochloa crus-galli); experiment: Test B flooded paddy test; details: Echinochloa crus-galli, 360 h
Procedure, shortened: (§2)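 Ratings are visual, 0–100 (100 = complete control), taken versus untreated controls 13 to 15 days after treatment in the greenhouse. Compound went straight into paddy water held 3 cm above soil, applied to 2-leaf-stage plants of four species.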

[9] = test system: ducksalad (Heteranthera limosa); experiment: Test B flooded paddy test; details: Heteranthera limosa, 360 h
Procedure, shortened: as §2

rice (Oryza sativa) = experiment: Test B flooded paddy test; details: Oryza sativa
Procedure, shortened: as §2

[10] = test system: umbrella sedge (Cyperus difformis); experiment: Test B flooded paddy test; details: Cyperus difformis, 360 h
Procedure, shortened: as §2

O=C1CCCC(O)=C1C(=O)c1cnc(-c2ccccc2)n(Cc2ccccc2)c1=O [Compound 17, 5-[(2-hydroxy-6-oxo-1-cyclohexen-1-yl)carbonyl]-2-phenyl-3-(phenylmethyl)-4(3H)-pyrimidinone]
15%: plant injury at 250 g/ha (rice (Oryza sativa); 250 g ai/ha, flooded paddy test, visual rating on 0 to 100 scale (0 no effect, 100 complete control) after 13 to 15 days, read-out: Plant response rating, Flood, Rice)
30%: pest or weed control at 500 g/ha ([2]; post-emergence, Postemergence, 0 to 100 scale, 0 = no effect, 100 = complete control, approx. ten days, read-out: Plant response rating, Foxtail, Giant) | pest or weed control at 62 g/ha ([9]; Flood (flooded paddy test), 62 g ai/ha, scale 0 to 100, 0 is no effect, 100 is complete control, 13 to 15 days, read-out: Plant response rating, Ducksalad) | pest or weed control at 125 g/ha ([9]; Flood (flooded paddy test), 125 g ai/ha, scale 0 to 100, 0 is no effect, 100 is complete control, 13 to 15 days, read-out: Plant response rating, Ducksalad)
90%: pest or weed control at 500 g/ha ([5]; pre-emergence, Preemergence, visual injury, 0 to 100 scale (0 no effect, 100 complete control), approx. ten days, read-out: Plant response rating, Pigweed)
45%: pest or weed control at 250 g/ha ([9]; 250 g ai/ha, flooded paddy test, visual rating on 0 to 100 scale (0 no effect, 100 complete control) after 13 to 15 days, read-out: Plant response rating, Flood, Ducksalad)
0%: pest or weed control at 125 g/ha ([1]; pre-emergence, Preemergence, 0 to 100 scale, 0 = no effect, 100 = complete control, read-out: Plant response rating, Barnyardgrass) | plant injury at 125 g/ha (corn (Zea mays); post-emergence, Postemergence, 125 g ai/ha, visual injury, 0 to 100 scale (0 no effect, 100 complete control), approx. ten days, read-out: Corn plant response rating) | Corn plant response rating (crop injury, 0 = no effect, 100 = complete kill) at 125 g/ha (corn (Zea mays); pre-emergence, Preemergence, 125 g ai/ha, 0 to 100 scale, 0 = no effect, 100 = complete control) | Corn plant response rating (crop injury, 0 = no effect, 100 = complete kill) at 500 g/ha (corn (Zea mays); pre-emergence, Preemergence, visual injury, 0 to 100 scale (0 no effect, 100 complete control), approx. ten days) | pest or weed control at 125 g/ha ([2]; post-emergence, Postemergence, visual injury, 0 to 100 scale (0 no effect, 100 complete control), approx. ten days, read-out: Foxtail, Giant plant response rating) | pest or weed control at 125 g/ha ([2]; pre-emergence, Preemergence, 0 to 100 scale, 0 = no effect, 100 = complete control, read-out: Plant response rating, Foxtail, Giant) | pest or weed control at 125 g/ha ([4]; pre-emergence, Preemergence, 0 to 100 scale, 0 = no effect, 100 = complete control, read-out: Plant response rating, Morningglory) | plant injury at 125 g/ha ([7]; post-emergence, Postemergence, visual injury, 0 to 100 scale (0 no effect, 100 complete control), approx. ten days, read-out: Wheat plant response rating) | plant injury at 125 g/ha ([7]; pre-emergence, Preemergence, 0 to 100 scale, 0 = no effect, 100 = complete control, read-out: Plant response rating, Wheat) | plant injury at 500 g/ha ([7]; pre-emergence, Preemergence, visual injury, 0 to 100 scale (0 no effect, 100 complete control), approx. ten days, read-out: Plant response rating, Wheat) | pest or weed control at 31 g/ha ([8]; Flood (flooded paddy test), 31 g ai/ha, scale of 0 to 100 where 0 is no effect and 100 is complete control, 13 to 15 days, read-out: Plant response rating, Barnyardgrass) | pest or weed control at 31 g/ha ([9]; Flood (flooded paddy test), 31 g ai/ha, scale of 0 to 100 where 0 is no effect and 100 is complete control, 13 to 15 days, read-out: Plant response rating, Ducksalad) | plant injury at 31 g/ha (rice (Oryza sativa); Flood (flooded paddy test), 31 g ai/ha, scale of 0 to 100 where 0 is no effect and 100 is complete control, 13 to 15 days, read-out: Plant response rating, Rice) | plant injury at 62 g/ha (rice (Oryza sativa); Flood (flooded paddy test), 62 g ai/ha, scale 0 to 100, 0 is no effect, 100 is complete control, 13 to 15 days, read-out: Plant response rating, Rice) | plant injury at 125 g/ha (rice (Oryza sativa); Flood (flooded paddy test), 125 g ai/ha, scale 0 to 100, 0 is no effect, 100 is complete control, 13 to 15 days, read-out: Plant response rating, Rice) | pest or weed control at 31 g/ha ([10]; Flood (flooded paddy test), 31 g ai/ha, scale of 0 to 100 where 0 is no effect and 100 is complete control, 13 to 15 days, read-out: Plant response rating, Sedge, Umbrella)
10%: pest or weed control at 125 g/ha ([1]; post-emergence, Postemergence, visual injury, 0 to 100 scale (0 no effect, 100 complete control), approx. ten days, read-out: Barnyardgrass plant response rating) | Corn plant response rating (crop injury, 0 = no effect, 100 = complete kill) at 500 g/ha (corn (Zea mays); post-emergence, Postemergence, 0 to 100 scale, 0 = no effect, 100 = complete control, approx. ten days) | pest or weed control at 125 g/ha ([3]; post-emergence, Postemergence, visual injury, 0 to 100 scale (0 no effect, 100 complete control), approx. ten days, read-out: Crabgrass, Large plant response rating) | pest or weed control at 500 g/ha ([4]; pre-emergence, Preemergence, visual injury, 0 to 100 scale (0 no effect, 100 complete control), approx. ten days, read-out: Plant response rating, Morningglory) | plant injury at 500 g/ha ([7]; post-emergence, Postemergence, 0 to 100 scale, 0 = no effect, 100 = complete control, approx. ten days, read-out: Plant response rating, Wheat)
80%: pest or weed control at 500 g/ha ([1]; pre-emergence, Preemergence, visual injury, 0 to 100 scale (0 no effect, 100 complete control), approx. ten days, read-out: Plant response rating, Barnyardgrass) | pest or weed control at 125 g/ha ([5]; post-emergence, Postemergence, visual injury, 0 to 100 scale (0 no effect, 100 complete control), approx. ten days, read-out: Pigweed plant response rating) | pest or weed control at 125 g/ha ([5]; pre-emergence, Preemergence, 0 to 100 scale, 0 = no effect, 100 = complete control, read-out: Plant response rating, Pigweed) | pest or weed control at 250 g/ha ([10]; 250 g ai/ha, flooded paddy test, visual rating on 0 to 100 scale (0 no effect, 100 complete control) after 13 to 15 days, read-out: Plant response rating, Flood, Sedge, Umbrella)
25%: pest or weed control at 250 g/ha ([8]; 250 g ai/ha, flooded paddy test, visual rating on 0 to 100 scale (0 no effect, 100 complete control) after 13 to 15 days, read-out: Plant response rating, Flood, Barnyardgrass) | pest or weed control at 125 g/ha ([8]; Flood (flooded paddy test), 125 g ai/ha, scale 0 to 100, 0 is no effect, 100 is complete control, 13 to 15 days, read-out: Plant response rating, Barnyardgrass)
40%: pest or weed control at 125 g/ha ([6]; pre-emergence, Preemergence, 0 to 100 scale, 0 = no effect, 100 = complete control, read-out: Plant response rating, Velvetleaf)
100%: pest or weed control at 500 g/ha ([3]; pre-emergence, Preemergence, visual injury, 0 to 100 scale (0 no effect, 100 complete control), approx. ten days, read-out: Plant response rating, Crabgrass, Large) | pest or weed control at 500 g/ha ([5]; post-emergence, Postemergence, 0 to 100 scale, 0 = no effect, 100 = complete control, approx. ten days, read-out: Plant response rating, Pigweed) | pest or weed control at 125 g/ha ([6]; post-emergence, Postemergence, visual injury, 0 to 100 scale (0 no effect, 100 complete control), approx. ten days, read-out: Velvetleaf plant response rating) | pest or weed control at 500 g/ha ([6]; post-emergence, Postemergence, 0 to 100 scale, 0 = no effect, 100 = complete control, approx. ten days, read-out: Plant response rating, Velvetleaf) | pest or weed control at 500 g/ha ([6]; pre-emergence, Preemergence, visual injury, 0 to 100 scale (0 no effect, 100 complete control), approx. ten days, read-out: Plant response rating, Velvetleaf)
20%: pest or weed control at 500 g/ha ([2]; pre-emergence, Preemergence, visual injury, 0 to 100 scale (0 no effect, 100 complete control), approx. ten days, read-out: Plant response rating, Foxtail, Giant) | pest or weed control at 125 g/ha ([3]; pre-emergence, Preemergence, 0 to 100 scale, 0 = no effect, 100 = complete control, read-out: Plant response rating, Crabgrass, Large) | pest or weed control at 125 g/ha ([4]; post-emergence, Postemergence, visual injury, 0 to 100 scale (0 no effect, 100 complete control), approx. ten days, read-out: Morningglory plant response rating) | pest or weed control at 62 g/ha ([8]; Flood (flooded paddy test), 62 g ai/ha, scale 0 to 100, 0 is no effect, 100 is complete control, 13 to 15 days, read-out: Plant response rating, Barnyardgrass)
70%: pest or weed control at 500 g/ha ([1]; post-emergence, Postemergence, 0 to 100 scale, 0 = no effect, 100 = complete control, approx. ten days, read-out: Plant response rating, Barnyardgrass) | pest or weed control at 500 g/ha ([3]; post-emergence, Postemergence, 0 to 100 scale, 0 = no effect, 100 = complete control, approx. ten days, read-out: Plant response rating, Crabgrass, Large) | pest or weed control at 500 g/ha ([4]; post-emergence, Postemergence, 0 to 100 scale, 0 = no effect, 100 = complete control, approx. ten days, read-out: Plant response rating, Morningglory) | pest or weed control at 62 g/ha ([10]; Flood (flooded paddy test), 62 g ai/ha, scale 0 to 100, 0 is no effect, 100 is complete control, 13 to 15 days, read-out: Plant response rating, Sedge, Umbrella) | pest or weed control at 125 g/ha ([10]; Flood (flooded paddy test), 125 g ai/ha, scale 0 to 100, 0 is no effect, 100 is complete control, 13 to 15 days, read-out: Plant response rating, Sedge, Umbrella)
